The subject of one test is α1. Description: α1 IC50. Format: binding.
The target of a further test is T1, 5-HT1a (Homo sapiens, UniProt P08908).
T1 sequence (P08908 1-422): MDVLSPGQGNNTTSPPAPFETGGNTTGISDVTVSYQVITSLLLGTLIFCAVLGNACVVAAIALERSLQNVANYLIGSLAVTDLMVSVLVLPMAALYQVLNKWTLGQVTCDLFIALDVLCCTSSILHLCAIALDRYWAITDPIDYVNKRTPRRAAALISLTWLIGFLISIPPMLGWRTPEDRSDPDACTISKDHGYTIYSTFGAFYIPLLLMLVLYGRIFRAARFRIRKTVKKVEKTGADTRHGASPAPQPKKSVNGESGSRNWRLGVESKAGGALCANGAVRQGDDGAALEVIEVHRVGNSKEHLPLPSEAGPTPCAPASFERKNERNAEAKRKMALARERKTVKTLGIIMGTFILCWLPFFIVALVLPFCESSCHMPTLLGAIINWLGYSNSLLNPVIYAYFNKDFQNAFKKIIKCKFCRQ
Nature of the test: biochemical. Format: binding.

Drawing on patent US5670667A, “Chroman-2-ylmethylamino derivatives” (American Home Products Corporation, priority 1996, dated 1997), this text covers IC50 for four compounds.

Consider `Oc1ccc2c(c1)OC(CNCCCCc1ccccc1)CC2` (centres unmarked) [Example 1m, 2-[(4-Phenyl-butylamino)-methyl]-chroman-7-ol], for which, in the test with α1, the IC50 was found to be 80 nM.
Still for that read-out and setting: then `Fc1ccc(CNCC2CCc3ccccc3O2)cc1` (centres unmarked) [reference compound], with 1280 nM; and `c1ccc(CNCC2CCc3ccccc3O2)cc1` (centres unmarked) [reference compound], with 630 nM.
Consider `Oc1ccc2c(c1)OC(CNCc1ccccc1)CC2` (centres unmarked) [Example 1f, 2-(Benzylamino-methyl)-chroman-7-ol], for which the IC50 against 5-HT1a was determined as 104 nM; with α1, 1140 nM.

In general, IC50 refers to the concentration needed to halve the response being measured. High values mean a need for much substance, low ones inhibition by little substance.
